# Measurements from paper PMC9043997, “LEAP2 reduces postprandial glucose excursions and ad libitum food intake in healthy men” (Cell Reports Medicine, 2022).
# Where a SMILES comes first, the peptide text is derived from it. Bridges are numbered along the chain shown (N, C = ends).
# Tests used:
# Type in all cases: in vivo, human
# healthy men [1] = assay: Plasma acetaminophen as indirect marker of gastric emptying, crossover study; conditions: healthy men n = 20, iv LEAP2 ~25 pmol/kg/min
# Text: (§1) The infusion was terminated when participants had finished eating.
# For analysis of plasma glucose, blood was distributed in fluoride heparin-coated tubes, centrifuged immediately for 30 s (12,100 g, room temperature) and measured bedside by the glucose oxidase method (YSI 2900 Biochemistry Analyzer; YSI Incorporated, Yellow Springs, Ohio, USA). For analysis of LEAP2, blood was collected in chilled K3EDTA tubes each containing 250 KIU of aprotinin. For analysis of acyl ghrelin, blood was collected in chilled K2EDTA tubes added 20 μL pefabloc (100 mg/mL; Merck Millipore, Burlington, Massachusetts, USA). Subsequently, pefabloc-treated plasma was acidified with HCl (12.5 μL 2M HCl per 500 μL plasma; Merck Millipore, Burlington, Massachusetts, USA). For analysis of glucagon, blood was collected in K2EDTA tubes. For analysis of GH, insulin, C-peptide, free fatty acids, glycerol, triglycerides and acetaminophen (paracetamol), blood was collected in tubes with lithium and heparin. All tubes were immediately cooled on ice, centrifuged for 15 min (2,000 g, 4°C) and stored at −80°C until analysis. LEAP2 concentrations were determined by an in-house radioimmunoassay directed against the N-terminal part of LEAP2. […] The precision and accuracy of the assay were evaluated based on European Medicines Agency's guidelines for bioanalytical assay validation. […] Due to supply chain disruptions from the COVID-19 pandemic, acyl ghrelin was only measured in plasma samples at timepoints 0, 60, 105, 165 and 255 min. […] Plasma GH was measured by Immunodiagnostic system-iSYS assay (IS-3700; IDS Limited, Boldon, UK). […] Glucagon was measured using a C-terminal directed antiserum (code number 4305) measuring glucagon of pancreatic origin as previously described.[40] […] Plasma insulin and C-peptide were measured using a two-sided electrochemiluminescence immunoassay (Atellica IM Analyzer; Siemens Healthcare, Ballerup, Denmark). Plasma triglycerides and acetaminophen were analyzed by spectrophotometric methods following enzymatic hydrolysis and oxidation (Siemens Atellica CH 930; Siemens Healthcare, Ballerup, Denmark). […]
# healthy men [2] = assay: Plasma acyl ghrelin during LEAP2 infusion, crossover study; conditions: mean ± SEM
# Text: as §1
# For analysis of plasma glucose, blood was distributed in fluoride heparin-coated tubes, centrifuged immediately for 30 s (12,100 g, room temperature) and measured bedside by the glucose oxidase method (YSI 2900 Biochemistry Analyzer; YSI Incorporated, Yellow Springs, Ohio, USA). For analysis of LEAP2, blood was collected in chilled K3EDTA tubes each containing 250 KIU of aprotinin. For analysis of acyl ghrelin, blood was collected in chilled K2EDTA tubes added 20 μL pefabloc (100 mg/mL; Merck Millipore, Burlington, Massachusetts, USA). Subsequently, pefabloc-treated plasma was acidified with HCl (12.5 μL 2M HCl per 500 μL plasma; Merck Millipore, Burlington, Massachusetts, USA). For analysis of glucagon, blood was collected in K2EDTA tubes. For analysis of GH, insulin, C-peptide, free fatty acids, glycerol, triglycerides and acetaminophen (paracetamol), blood was collected in tubes with lithium and heparin. All tubes were immediately cooled on ice, centrifuged for 15 min (2,000 g, 4°C) and stored at −80°C until analysis. LEAP2 concentrations were determined by an in-house radioimmunoassay directed against the N-terminal part of LEAP2. LEAP-2 was used for standards, and the tracer was a peptide composed of the 12 N-terminal amino acids of LEAP2, with a ^125I-labelled tyrosine added to the C-terminal end. The precision and accuracy of the assay were evaluated based on European Medicines Agency's guidelines for bioanalytical assay validation. […] Due to supply chain disruptions from the COVID-19 pandemic, acyl ghrelin was only measured in plasma samples at timepoints 0, 60, 105, 165 and 255 min. […] Plasma GH was measured by Immunodiagnostic system-iSYS assay (IS-3700; IDS Limited, Boldon, UK). The assay is based on chemiluminesence technology and was performed according to the manufacturer’|'s instructions. […] For analysis of glucagon, plasma was extracted in a final concentration of 70% ethanol. Glucagon was measured using a C-terminal directed antiserum (code number 4305) measuring glucagon of pancreatic origin as previously described.[40] […] Plasma insulin and C-peptide were measured using a two-sided electrochemiluminescence immunoassay (Atellica IM Analyzer; Siemens Healthcare, Ballerup, Denmark). Plasma triglycerides and acetaminophen were analyzed by spectrophotometric methods following enzymatic hydrolysis and oxidation (Siemens Atellica CH 930; Siemens Healthcare, Ballerup, Denmark). Plasma concentrations of free fatty acids and glycerol were determined by enzymatic methods modified to run on a COBAS 6000 automatic analyzer (Roche, Rødovre, Denmark) using a NEFA-HR assay (Wako Chemicals, Neuss, Germany) and glycerol assay (Randox Laboratories, Crumlin, UK), respectively.
# Unless otherwise stated, results are presented as mean ± SEM. Baseline values were calculated as a mean of timepoints −35, −10 and 0 min or, when only available −10 and 0 min. Baseline values for the postprandial period were calculated as a mean of timepoint 60 min. Calculations of AUC were based on the trapezoidal rule. AUC values are reported for the period 0 to 255 min. To assess the fasting and postprandial periods separately, AUC values are reported for the periods 0 to 60 min and 60 to 255 min, respectively. Student’s paired t test was used to test for differences in baseline, peak, time to peak, AUC and mean values and ad libitum food intake in men.
# healthy men [3] = assay: Brown adipose tissue thermogenesis by thermal imaging; conditions: iv LEAP2 ~25 pmol/kg/min, thermal imaging camera
# Description: To assess BAT thermogenesis, temperature of the upper chest was measured from −10 to 0 min, 0 to 15 min, 90 to 105 min and 180 to 195 min using a thermal imaging camera (FLIR A655sc; FLIR Systems, Wilsonville, Oregon, USA). Participants were positioned approximately one meter from the camera in a hospital bed with slight elevation of the head and wearing long-sleeved shirts that exposed the upper chest. The emissivity for measurement of human skin temperatures was set to 0.98 as detailed by the manufacturer. Thermal images were collected at 30-s intervals and analyzed using the FLIR tools program (FLIR Systems, Wilsonville, Oregon, USA). Post hoc, the two supraclavicular regions and a region corresponding to the manubrium of the sternum were marked as regions of interest and the maximum temperature per image was recorded. An average of records from the two supraclavicular regions was used. The manubrium region was used as a negative control reflecting the overall cutaneous heat production.[37], [38], [39] For analysis of BAT thermogenesis, manubrium-corrected temperature was calculated as the average of the supraclavicular skin temperatures minus the manubrium skin temperature. […] Average room temperature was 22.5 ± 0.06 °C adjusted by two air conditioners (Electrolux EXP35U538CW; AB Electrolux, Stockholm, Sweden) and recorded four times during each experimental day. […]
# [4] = 1.5 g acetaminophen in liquid mixed meal at 65 min, marker of gastric emptying, mean ± SEM
compound,measurement,setting,value
"CC[C@H](C)[C@@H]1NC(=O)[C@@H]2CSSC[C@@H](C(=O)N[C@@H](CO)C(=O)N[C@@H](CC(C)C)C(=O)N[C@@H](CO)C(=O)N[C@H](C(=O)N[C@@H](C)C(=O)N[C@@H](CCC(N)=O)C(=O)N[C@@H](CCC(=O)O)C(=O)O)C(C)C)NC(=O)[C@H](CCCNC(=N)N)NC(=O)[C@H](CCCNC(=N)N)NC(=O)[C@H](CCCCN)NC(=O)[C@H](CCCNC(=N)N)NC(=O)[C@H](CSSC[C@H](NC(=O)[C@H](CO)NC(=O)[C@H](C)NC(=O)CNC(=O)[C@@H](NC(=O)[C@@H]3CCCN3C(=O)[C@H](CCCNC(=N)N)NC(=O)[C@H](CC(C)C)NC(=O)[C@H](CO)NC(=O)[C@@H](NC(=O)CNC(=O)[C@H](CCCNC(=N)N)NC(=O)[C@H](Cc3c[nH]c4ccccc34)NC(=O)[C@H](Cc3ccccc3)NC(=O)[C@@H]3CCCN3C(=O)[C@@H](NC(=O)[C@@H](N)CCSC)[C@@H](C)O)C(C)C)[C@@H](C)CC)C(=O)N[C@@H](CCCNC(=N)N)C(=O)N[C@@H](CC(=O)O)C(=O)N[C@@H](CC(=O)O)C(=O)N[C@@H](CO)C(=O)N[C@@H](CCC(=O)O)C(=O)N2)NC(=O)[C@H](CC(C)C)NC(=O)[C@H](CCCNC(=N)N)NC(=O)[C@H]([C@@H](C)O)NC1=O [LEAP2, liver-expressed antimicrobial peptide 2] (H-MTPFWRGVSLRPIGASCRDDSECITRLCRKRRCSLSVAQE-OH; disulfide 17-28, 23-33 (inferred); N-terminus and C-terminus assumed)",Acetaminophen Peak,healthy men [1]; [4],65.1 ± 2.52 µmol/L
same,Acetaminophen Time to peak,healthy men [1]; [4],209 ± 6.34 min
same,gastric emptying rate of a liquid mixed meal,"healthy men [1]; by plasma acetaminophen, vs placebo",does not alter gastric emptying rate
same,Acyl ghrelin Baseline,"healthy men [2]; healthy men n = 20, LEAP2 day, before infusion",0.155 ± 0.011 ng/mL
same,Acyl ghrelin AUC,"healthy men [2]; healthy men n = 20, iv LEAP2 ~25 pmol/kg/min, 0 to 255 min",31.2 ± 1.94 ng·min/mL
same,Acyl ghrelin AUC0–60 min,"healthy men [2]; healthy men n = 20, iv LEAP2 ~25 pmol/kg/min, fasting period",9.50 ± 0.67 ng·min/mL
same,Acyl ghrelin Nadir,"healthy men [2]; healthy men n = 20, iv LEAP2 ~25 pmol/kg/min, liquid mixed meal at 65 min",0.088 ± 0.006 ng/mL
same,Acyl ghrelin AUC60–255 min,"healthy men [2]; healthy men n = 20, iv LEAP2 ~25 pmol/kg/min, postprandial period",21.7 ± 1.33 ng·min/mL
same,Acyl ghrelin Postprandial baseline,"healthy men [2]; healthy men n = 20, iv LEAP2 ~25 pmol/kg/min, time = 60 min",0.161 ± 0.012 ng/mL
same,"BAT thermogenesis (manubrium-corrected supraclavicular skin temperature), LEAP2 vs placebo",healthy men [3],no differences
